Entries after “also recorded” stand apart in the source; their conditions may differ. Marks after values point to notes of the source that are not given here.

This is an account of results in patent publication US12396990B2, “Application of 5-hydroxytryptamine receptor 1A in preparing drug for portal hypertension” (SECOND AFFILIATED HOSPITAL, SECOND MILITARY MEDICAL …, priority 2018, dated 2025).

Assay [1] has as its system isolated portal veins. The experiment in a line: Contractile tension of isolated portal veins. Further details: species or system Male Wistar rats. The following applies: for Effect of agonist on contractile tension of isolated portal vein: cumulative concentrations, 3 minutes each, agonist alone; for Effect of antagonist on 5-HT induced contraction of isolated portal vein: pre-incubation with antagonist for 20 minutes before 5-HT; for Effect of antagonist on 8-OH-DPAT induced contraction of isolated portal vein: pre-incubation with antagonist for 20 minutes before 8-OH-DPAT; for Effect of antagonist on F11440 induced contraction of isolated portal vein: pre-incubation with antagonist for 20 minutes before F11440. The text has this: Effects of the selective agonist and antagonist of HTR1A on contractile tension of isolated portal vein.
1) Male Wistar rats, weighting 140 g to 160 g, were anesthetized with inhalational isopentane through a mask. The portal veins were gently isolated from the animals and 3-5 mm of the vessel was removed under the anatomical microscope from the connective tissue, and then the vessel was placed in a cold Tyrode solution (NaCl: 148.9, KCl: 2.7, CaCl2: 1.8, NaPO4H2: 0.2, NaCO3H: 11.9, MgCl2: 1.2, glucose: 5.5 mM). Isolated portal veins were mounted in 20 ml jacketed tissue baths containing the appropriate Tyrode solution (37±0.5° C., PH=7.4) constantly bubbled with O2, by suspending them between two L-shaped stainless-steel hooks. The lower hooks were fixed and the upper hooks were attached to force-displacement transducers. Isometric force was measured and recorded using the ALC-MPA software associated with the equipment.
2) A pre-load of 1 g was applied. After mounting, isolated portal veins were equilibrated for […]. The contractile response to depolarizing potassium solution was then assessed as a test for viability. The depolarizing KCl solution (80 mM) had the same composition as the Tyrode solution used, except for the NaCl that had been completely replaced by an equimolar amount of KCl. The iPVs were washed with Tyrode solution four times and re-equilibrated for another […].
3) To evaluate the effects of 5-HT or HTR1A agonist on the contraction of iPVs, serotonin or selective agonist of HTR1A (8-OH-DPAT and F11440) was directly administrated into the tissue baths for 3 minutes in cumulatively concentrations, and the magnitude of contractile tension was recorded. To evaluate the effects of HTR1A antagonist, a pre-incubation with selective antagonist of HTR1A (WAY 100635 and NAD 299) for 20 minutes was used before increasing administration of 5-HT or HTR1A agonist.
4) 5-HT, selective agonist of HTR1A (8-OH-DPAT and F11440), and selective antagonist of HTR1A (WAY 100635 and NAD 299) were purchased from Sigma, Selleck, Tocris, and TargetMol, respectively.

The subject of assay [2] is cirrhotic portal hypertensive rats induced by carbon tetrachloride (CCl4). Put plainly: Portal pressure in cirrhotic portal hypertensive rats induced by CCl4, agonist 8-OH-DPAT (Example 3). It counts as in vivo, Male Wistar rats. The following applies: CCl4 model. The text has this:
(§1) 1) Self-made portal pressure measuring kit, which contains 24-Gauge scalp vein set (Y type) and catheter, and high-sensitive pressure sensor, biological signal processing system (SMUP-U, Jide experimental teaching equipment factory, Shanghai, China) were used to measure the portal pressure in rats.
(§2) 2) Connect all the catheters and device, check the tightness and set zero, then open the portal pressure measuring kit, connect the catheter with the scalp vein set and high-sensitive pressure sensor, following the connection between pressure sensor and biological signal processing system. Fill all the catheters with heparin sodium saline (volume of heparin sodium and saline: 1.25 WU: 500 ml), eliminate the air bubbles and close the catheter. Then remove the needle in the scalp vein set, place it horizontally at the portal vein height of the rat (supine position). The zero point was set after opening the catheter in the biological collection system software.
3) Rats were anesthetized with inhalational isopentane through a mask. A midline abdominal incision was made, and the portal vein was cannulated with a 24-Gauge scalp vein set, connecting with a catheter filled heparin-saline, to measure PP. […]
4) After one-week treatment, portal pressure of all the rats were measured and rats were sacrificed for liver tissues. […]

Assay [3] deals with cirrhotic portal hypertensive rats induced by thioacetamide (TAA). Put plainly: Portal pressure in cirrhotic portal hypertensive rats induced by thioacetamide (TAA). It counts as in vivo, Male Wistar rats. The following applies: TAA model; for Effect on portal pressure / Portal pressure: WAY 100635 1 mg/kg i.p.; for Effect on portal pressure: alverine 15 mg/kg by gavage, once per day; for Portal pressure: alverine 15 mg/kg p.o., means ±SEM; for Portal pressure / Effect on portal pressure compared with carvedilol: carvedilol 10 mg/kg p.o.; for Portal pressure / Change of portal pressure vs. Vehicle: once per day for one week; for Change of portal pressure vs. Vehicle: same dosing. As for the experimental part:
Effects of the selective antagonist of HTR1A WAY 100635, and alverine on portal pressure (PP) in cirrhotic portal hypertensive rats induced by thioacetamide (TAA).
Male Wistar rats, weighting about 140 to 160 grams (g) each, were purchased from SLAC Laboratory Animal Co., Ltd (Shanghai, China) and housed under standard animal laboratory conditions in the experimental animal center of Second Military Medical University (Shanghai, China). All animal experiments in this study were performed in accordance with protocols approved by the local Ethical Committee of the Second Military Medical University.
1) Thirty-five male Wistar rats, weighting 140 g to 160 g, were randomly divided into normal control group (N=8) and TAA group (N=27). Rats in TAA group were subjected to intraperitoneally (i.p.) injections of TAA (purchase from […]) at 200 mg/kg, which is diluted in sterile normal saline (NS; 0.9% sodium chloride), 3 times per week for 16 weeks to induce cirrhotic portal hypertension. The normal controls received injections of NS at the same timepoint. At the beginning of the 17th week, rats in TAA group were randomly divided into four groups: Vehicle group (N=7), Alverine group (N=7), WAY 100635 group (N=7), and carvedilol group (N=6).
2) Alverine (purchase from TargetMol) was diluted in the saline at a concentration of 5 mg/ml and delivered to the rats in Alverine group via gavage (p.o.). WAY 100635 (purchase from Selleck) was diluted in sterile normal saline at a concentration of 1 mg/ml and peritoneally injected (i.p.) into the rats in WAY 100635 group. Carvedilol (purchase from TargetMol) was diluted in sterile normal saline at a concentration of 1 mg/ml and delivered to the rats in carvedilol group via gavage.
3) Rats in the Alverine group, WAY 100635 group, and carvedilol group were received alverine 15 mg/kg p.o.+saline i.p., saline p.o.+WAY 100635 1 mg/kg i.p., carvedilol 10 mg/kg p.o.+saline i.p., respectively once per day for one week, while rats in vehicle group received saline p.o. and saline i.p. at the same timepoint.
4) After one-week treatment, portal pressure of all the rats were measured and rats were sacrificed for liver tissues.
as §1, §2
3) Rats were anesthetized with inhalational isopentane through a mask. A midline abdominal incision was made, and the portal vein was cannulated with a 24-Gauge scalp vein set, connecting with a catheter filled heparin-saline, to measure PP.
Data were presented as the means ±SEM. One-way analysis of variance (ANOVA) and student's t-tests were performed to compare data between two groups, and a P value of less than 0.05 was considered statistically significant.

Assay [4] concerns cirrhotic portal hypertensive rats induced by carbon tetrachloride (CCl4). The experiment in a line: Portal pressure in cirrhotic portal hypertensive rats induced by carbon tetrachloride (CCl4), antagonists (Example 2). The format is in vivo, Male Wistar rats. The following applies: CCl4 model; for Effect on portal pressure / Portal pressure: WAY 100635 1 mg/kg i.p.; for Effect on portal pressure: alverine 15 mg/kg by gavage, once per day; for Portal pressure: alverine 15 mg/kg p.o., means ±SEM; for Portal pressure / Effect on portal pressure compared with carvedilol: carvedilol 10 mg/kg p.o.; for Portal pressure / Change of portal pressure vs. Vehicle: once per day for one week; for Change of portal pressure vs. Vehicle: same dosing. The source says:
1) Self-made portal pressure measuring kit, which contains 24-Gauge scalp vein set (Y type) and catheter, and high-sensitive pressure sensor, biological signal processing system (SMUP-U, Jide experimental teaching equipment factory, Shanghai, China) were used to measure the portal pressure in rats. 2) Connect all the catheters and device, check the tightness and set zero, then open the portal pressure measuring kit, connect the catheter with the scalp vein set and high-sensitive pressure sensor, following the connection between pressure sensor and biological signal processing system. Fill all the catheters with heparin sodium saline (volume of heparin sodium and saline: 1.25 WU: 500 ml), eliminate the air bubbles and close the catheter. Then remove the needle in the scalp vein set, place it horizontally at the portal vein height of the rat (supine position). The zero point was set after opening the catheter in the biological collection system software. 3) Rats were anesthetized with inhalational isopentane through a mask. A midline abdominal incision was made, and the portal vein was cannulated with a 24-Gauge scalp vein set, connecting with a catheter filled heparin-saline, to measure PP. Effects of the selective antagonist of HTR1A WAY 100635, and alverine on portal pressure (PP) in cirrhotic portal hypertensive rats induced by carbon tetrachloride (CCl4). 1) Thirty-one male Wistar rats, weighting 140 g to 160 g, were randomly divided into normal control group (N=7) and CCl4 group (N=24). Rats in CCl4 group were subjected to intraperitoneally (i.p.) injections of CCl4 at 0.25 ml/kg (diluted 1:3 v/v in olive oil) twice per week for 12 weeks to induce cirrhotic portal hypertension, while the normal controls received injections of olive oil at the same timepoint. At the beginning of the eleventh week, rats in CCl4 group were randomly divided into four groups: Vehicle group (N=7), Alverine group (N=6), WAY 100635 group (N=5), and carvedilol group (N=6). 2) Alverine was diluted in sterile normal saline at a concentration of 5 mg/ml and delivered to the rats in Alverine group via gavage (p.o.). WAY 100635 was diluted in sterile normal saline at a concentration of 1 mg/ml and peritoneally injected (i.p.) into the rats in WAY 100635 group. Carvedilol was diluted in sterile normal saline at a concentration of 1 mg/ml and delivered to the rats in carvedilol group via gavage. 3) Rats in the Alverine group, WAY 100635 group, and carvedilol group were received alverine 15 mg/kg p.o.+saline i.p., saline p.o.+WAY 100635 1 mg/kg i.p., carvedilol 10 mg/kg p.o.+saline i.p., respectively once per day for one week, while rats in vehicle group received saline p.o. and saline i.p. at the same timepoint. 4) After one-week treatment, portal pressure of all the rats were measured and rats were sacrificed for liver tissues. Similar as that in embodiment example 1.

As for `NCCc1c[nH]c2ccc(O)cc12` [5-HT, 5-hydroxytryptamine], in assay [1], the “Effect of agonist on contractile tension of isolated portal vein” value (shortened to “Effect of agonist”) is given as “concentration-dependent contraction”.
For the compound `CCCN(CCC)C1CCc2cccc(O)c2C1` (stereo not shown) [8-OH-DPAT], the “Effect on portal pressure” value in assay [2] (8-OH-DPAT 1 mg/kg i.p. once per day) is recorded as “increased; also recorded: significantly increase”. The compound also gave a Portal pressure in assay [2] (8-OH-DPAT 1 mg/kg i.p. once per day for one week, means ±SEM) of 11.66 ± 1.89 cmH2O. Moreover, in assay [1], the “Effect of agonist” value was “considerably increased the contractile force of iPVs in a concentration-dependent manner”.
Turning to `CCN(CCCc1ccccc1)CCCc1ccccc1` [Alverine], in assay [3], the “Effect on portal pressure” value is on record as “significantly decreased”; the Portal pressure is 12.98 ± 1.74 cmH2O; the “Effect on portal pressure compared with carvedilol” value (“Effect … compared with carvedilol” for short) is recorded as “not significantly different”; the “Change of portal pressure vs. Vehicle” value was “(−38.39%^#, P < 0.0001)”. Moreover, in assay [4], the “Effect on portal pressure” value is “significantly decrease”; the Portal pressure was found to be 6.94 ± 0.98 cmH2O; the “Effect … compared with carvedilol” value is recorded as “not significantly different”; the “Change of portal pressure vs. Vehicle” value is “(−41.44%*, P = 0.0065)”.
In the case of `COc1ccccc1OCCNCC(O)COc1cccc2[nH]c3ccccc3c12` (stereo not shown) [Carvedilol], the Portal pressure in assay [3] was determined as 14.01 ± 4.14 cmH2O; in assay [4], 7.99 ± 1.37 cmH2O. For the same compound, the “Change of portal pressure vs. Vehicle” value in assay [3] is recorded as “(−33.54%^#, P = 0.0025)”; in assay [4], “(−32.58%^#, P = 0.0200)”.
With `Cn1c(=O)cnn(CCCCN2CCN(c3ncccn3)CC2)c1=O` [F11440], the “Effect of agonist” value in assay [1] is on record as “considerably increased the contractile force of iPVs in a concentration-dependent manner”.
For the compound `NC(=O)c1ccc(F)c2c1C[C@@H](N(C1CCC1)C1CCC1)CO2` [NAD 299], in assay [1], the “Effect of antagonist on 5-HT induced contraction of isolated portal vein” value is “abrogated”, the “Effect of antagonist on 8-OH-DPAT induced contraction of isolated portal vein” value was “almost completely inhibited” and the “Effect of antagonist on F11440 induced contraction of isolated portal vein” value is on record as “almost completely inhibited”.
In the case of `COc1ccccc1N1CCN(CCN(C(=O)C2CCCCC2)c2ccccn2)CC1` [WAY 100635], in assay [3], the “Effect on portal pressure” value is recorded as “significantly decreased”; the Portal pressure was determined as 13.27 ± 3.00 cmH2O; the “Effect … compared with carvedilol” value is on record as “not significantly different”; the “Change of portal pressure vs. Vehicle” value is given as “(−37.04%^#, P = 0.0001)”. Besides, in assay [4], the “Effect on portal pressure” value was “significantly decrease”; the Portal pressure amounted to 7.36 ± 2.14 cmH2O; the “Effect … compared with carvedilol” value was “not significantly different”; the “Change of portal pressure vs. Vehicle” value was “(−37.88%^#, P = 0.0125)”. For the same compound, in assay [1], the “Effect of antagonist on 5-HT induced contraction of isolated portal vein” value was “abrogated”, the “Effect of antagonist on 8-OH-DPAT induced contraction of isolated portal vein” value was “almost completely inhibited” and the “Effect of antagonist on F11440 induced contraction of isolated portal vein” value is “almost completely inhibited”.
